# Details: pH 7.4
# Procedure: As a bioactive substance, flavone (manufactured by Tokyo Chemical Industry Co., Ltd., NO. H0721) was used.
# Any substance in the substance group A and a bioactive substance were added to 10 mL of distilled water and mixed to prepare a solution (or suspension), which was used as a test liquid. The substance in the substance group A was added in an amount such that the concentration in the test liquid was 10 mg/mL. The bioactive substance was added in an amount such that the concentration in the test liquid was 250 µg/mL. As a control, a test liquid (flavone only) to which a substance in the substance group A was not added was also prepared.
# A receptor part of a Franz-type vertical diffusion cell was filled with a phosphate buffer (pH 7.4) containing 0.5% sodium taurocholate, and a Strat-M membrane for a transdermal diffusion test (manufactured by Merck) was attached as a permeable membrane. After 400 µL of the test liquid was dropped on the donor side, a receptor liquid was sampled over time. The amount of the bioactive substance in the sampled receptor liquid was quantified by high performance liquid chromatography. The experiment was performed with N = 1.
smiles,measurement,value
"C[C@@H]1O[C@@H](O[C@H]2[C@H](Oc3cc(O)c4c(c3)O[C@H](c3ccc(O)cc3)CC4=O)O[C@H](CO)[C@@H](O)[C@@H]2O)[C@H](O)[C@H](O)[C@H]1O [naringin, Naringin]",skin permeation amount of flavone,hardly changed

# — patent EP4755386A1, “SKIN PERMEATION PROMOTER AND SKIN PERMEATION PROMOTION METHOD” (Toyo Sugar Refining Co., Ltd., priority 2023, dated 2025)
